Data reported in article PMC4423475, “Structure-based discovery of the first non-covalent inhibitors of Leishmania major tryparedoxin peroxidase by high throughput docking” (Scientific Reports, 2015).

Columns and labels:
LmTXNPx [1] = target: T1, LmTXNPx (Leishmania major, UniProt Q4QF76); assay: HRP-H2O2 competition assay (LmTXNPx inhibition assay); type: biochemical
Source text: To determine the ability of the selected compounds to inhibit the catalytic activity of LmTXNPx, we used the horseradish peroxidase (HRP)-H2O2 competition assay developed by Augusto and co-workers[16]. HRP is well known to react with H2O2 in a two-electron oxidation process that leads to the formation of HRP compound I (HRP-I), a stable HRP oxidized intermediate that can be followed at 398 nm. Reduced LmTXNPx competes with HRP for the H2O2 substrate, leading to a decrease in HRP-I yield that is proportional to LmTXNPx concentration. The addition of LmTXNPx inhibitors leads to a decrease in free LmTXNPx concentration and consequent increase in the HRP-I yield.
Competition kinetics have been performed for determining the activity of the compounds selected by HTD. The ability of the compounds to inhibit the H2O2 reduction by LmTXNPx has been determined by competition approach utilizing the well-known reactivity of H2O2 with horseradish peroxidase (HRP)[16][20][26]. HRP is a heme-containing peroxidase, which uses hydrogen peroxide (by reducing it to water) to oxidize different organic substrates to free radicals. The reaction takes place in three steps: • PFe(III) + H2O2 → P^·+Fe(IV) = O + H2O • P^·+Fe(IV) = O + X → X^• + PFe(IV) = O • PFe(IV) = O + X + 2H^+ → PFe(III) + X^· + H2O
Where PFe(III) is HRP (the native protein), P^·+Fe(IV) = O is the HRP compound I (HRP-I), PFe(IV) = O is the HRP compound II (HRP-II) and X is a generic substrate. The formation of HPR-I results in a change in light absorption in the visible range (Δε403 nm = 5.4 × 10^4 M^−1cm^−1). For kinetic studies the HRP oxidation is monitored at 398 nm (Δε398 nm = 4.2 × 10^4 M^−1cm^−1) instead of 403 nm (wavelength corresponding to the maximum of HRP absorbance) in order to avoid interferences arising from HRP-I reduction to HRP-II. This method is usually used to determine the second order rate constant of 2Cys- Peroxiredoxin reaction with hydrogen peroxide and peroxinitrite.
Thus, H2O2-mediated HRP oxidation is a two-electron oxidation process, leading to the formation of HRP-I, followed at 398 nm. The addition of increasing concentrations of pre-reduced LmTXNPx led to a lower yield in HRP-I since two reactions take place in solution: [drawing 1] [drawing 2]
Where I indicates the inhibitor and LmTXNPx-I indicates the complex between LmTXNPx and the inhibitor. The addition of active LmTXNPx inhibitors led to a decrease in the free LmTXNPx and the consequent recover in the HRP-I yield and therefore to a partial or total recover of the ΔA.
The HRP-based indirect kinetic assays to test the inhibitors was performed in the following way: HRP 2 μM was exposed to H2O2 0.25 μM in sodium phosphate buffer pH 7.4 and 25°C, either in the absence or in the presence of the indicated concentrations of reduced LmTXNPx and in the absence or in the presence of inhibitors. The relative changes in absorbance at 398 nm (ΔA/ΔA0), reflecting HRP-I formation, were determined.
(§1) The compounds ability to inhibit TXNPx has been evaluated by simply measuring the following ratio: ΔA/ΔA0 where ΔA0 is the difference in absorbance between HRP and compound I (ΔA0 = 0.04) and ΔA is the difference in absorbance between HRP and compound I in the presence of LmTXNPx and 100 μM inhibitors. All the compounds have been previously tested for their ability to inhibit HRP at a concentration of 100 μM.

[2] = target: T2, horseradish peroxidase (HRP) (Armoracia rusticana, UniProt P00433); assay: HRP inhibition control (compounds tested for their ability to inhibit HRP); type: biochemical; details: compound at 100 μM; for HRP inhibition: first series (HTD hits)
T2 sequence (P00433 31-353): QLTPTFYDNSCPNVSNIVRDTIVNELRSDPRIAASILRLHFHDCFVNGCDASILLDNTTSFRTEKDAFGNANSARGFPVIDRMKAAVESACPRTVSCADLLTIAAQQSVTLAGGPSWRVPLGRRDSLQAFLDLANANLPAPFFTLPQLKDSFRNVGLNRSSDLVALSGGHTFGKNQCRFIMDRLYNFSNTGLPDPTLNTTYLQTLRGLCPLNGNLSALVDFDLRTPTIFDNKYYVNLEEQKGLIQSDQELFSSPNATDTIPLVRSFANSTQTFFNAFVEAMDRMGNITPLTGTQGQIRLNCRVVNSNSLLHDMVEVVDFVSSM
Method: as §1

LmTXNPx [3] = target: T1, LmTXNPx; assay: Surface plasmon resonance, immobilized LmTXNPx; type: binding; details: SPR, 1:1 steady-state affinity model
Method: SPR experiments were carried out using a SensiQ Pioneer system (SensiQ, ICxNomadics Inc.). The interaction of the immobilized protein with the analytes was detected by mass concentration-dependent changes of the refractive index on the sensor chip surface. The changes in the observed SPR signal are expressed as Resonance Units (RU). Typically, a response change of 1000 RU corresponds to a change in the surface concentration on the sensor chip of about 1 ng of protein per mm^2.
The sensor chips (COOH5 SensiQ) were chemically activated by injection of 250 μl of a 1:1 mixture of N-hydroxysuccinimide (50 mM) and N-ethyl-N-(3-dimethylaminopropyl)carbodiimide (200 mM) at a flow rate of 25 μl/min. Recombinant LmTXNPx was immobilized on the activated sensor chip via amine coupling. The reaction was carried out at a rate of […] in 20 mM sodium acetate at pH 4.5; the remaining ester groups were blocked by injecting 100 μL of 1 M ethanolamine hydrochloride. Recombinant LmTXNPx was captured to approximately 2000 RU. The analytes were dissolved at a concentration of 10 mM or 20 mM in dimethylsulfoxide (DMSO), and diluted 1:100 in HEPES-buffered saline (HBS: 10 mM HEPES, pH 7.4; 150 mM NaCl; 0.005% surfactant P20).
FastStep injections of samples (100 or 200 μM analytes in HBS + 1% DMSO), and reference buffer (HBS + 1% DMSO) were performed: either the inhibitor and reference buffer were automatically diluted in HBS and injected by 7 serial doubling steps (step contact time = 15 s, nominal flow rate = 200 μl/min). The following analytes were injected: 0–17 s: analyte concentration = 3.12 μM; 17–33 s: 6.25 μM; 33–48 s: 12.5 μM; 48–62 s: 25 μM; 63–78 s: 50 μM; 78–93 s: 100 μM; 94–100 s: 200 μM; for each injection, a maximal RU value was obtained. In control experiments, the sensor chip was treated as described above in the absence of immobilized protein.
Each sensorgram is the average of three different experiments. Sensorgrams were subjected to global analysis using QDat software 2.2.0.23, and for each analyte concentration a % Response was calculated, allowing a local Rmax fit (according to the molecular weight of each compound) and displaying as a response relative to the Rmax. % Response vs. analyte concentration was plotted and a KD value was calculated for each analyte by fitting a simple 1:1 steady-state affinity model to the data.

[4] = first series (HTD hits), HRP 2 µM, H2O2 0.25 µM, 2.5 µM LmTXNPx, 100 µM inhibitors, pH 7.4, 25 °C
[5] = residual activity of HRP, HRP 2 μM, H2O2 0.25 μM, 2.5 μM LmTXNPx, 100 μM inhibitors, sodium phosphate buffer pH 7.4, 25°C

T1 sequence (Q4QF76 entry or part of it): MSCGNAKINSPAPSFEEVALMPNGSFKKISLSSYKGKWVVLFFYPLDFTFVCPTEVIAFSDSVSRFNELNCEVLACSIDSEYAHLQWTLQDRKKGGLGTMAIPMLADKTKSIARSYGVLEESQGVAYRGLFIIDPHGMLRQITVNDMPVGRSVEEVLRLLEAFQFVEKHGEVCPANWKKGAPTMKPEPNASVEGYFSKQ

| Compound | (ΔA/ΔA0) × 100 (LmTXNPx [1]; [4]) | (ΔA/ΔA0) × 100 (LmTXNPx [1]; [5]) | HRP inhib. [2] | HRP inhibition [2] | Kd (LmTXNPx [3]) |
| --- | --- | --- | --- | --- | --- |
| COc1cc2cc(CN(Cc3ccc(F)cc3)Cc3nnnn3Cc3ccccc3)c(=O)[nH]c2cc1OC [Compound 1, 3-((((1-Benzyl-1H-tetrazol-5-yl)methyl)(4-fluorobenzyl)amino)methyl)-6,7-dimethoxyquinolin-2(1H)-one] | 47 ± 6% | 52 ± 10% | No | No | 290 ± 13 µM |
| COc1cc2cc(CN(Cc3ccc(F)cc3)Cc3nnnn3Cc3cccc([N+](=O)[O-])c3)c(=O)[nH]c2cc1OC [Compound 2, 3-(((4-Fluorobenzyl)((1-(3-nitrobenzyl)-1H-tetrazol-5-yl)methyl)amino)methyl)-6,7-dimethoxyquinolin-2(1H)-one] | – | 37 ± 9% | No | – | 172 ± 6 µM |
| COc1cc2cc(CN(Cc3ccc(F)cc3)Cc3nnnn3Cc3cccc(N)c3)c(=O)[nH]c2cc1OC [Compound 3, 3-((((1-(3-Aminobenzyl)-1H-tetrazol-5-yl)methyl)(4-fluorobenzyl)amino)methyl)-6,7-dimethoxyquinolin-2(1H)-one] | – | 44 ± 6% | No | – | 354 ± 12 µM |
| COc1cc2cc(CN(Cc3ccc(F)cc3)Cc3nnnn3Cc3cccc(N(C)C)c3)c(=O)[nH]c2cc1OC [Compound 4, 3-((((1-(3-(Dimethylamino)benzyl)-1H-tetrazol-5-yl)methyl)(4-fluorobenzyl)amino)methyl)-6,7-dimethoxyquinolin-2(1H)-one] | – | – | – | – | 156 ± 5 µM |
| COc1cc2cc(CN(Cc3ccc(F)cc3)Cc3nnnn3Cc3cccc(I)c3)c(=O)[nH]c2cc1OC [Compound 5, 3-(((4-Fluorobenzyl)((1-(3-iodobenzyl)-1H-tetrazol-5-yl)methyl)amino)methyl)-6,7-dimethoxyquinolin-2(1H)-one] | – | 71 ± 6% | No | – | 281 ± 11 µM |
| COc1cc2cc(CN(Cc3ccc(F)cc3)Cc3nnnn3Cc3cccc(-c4ccccc4)c3)c(=O)[nH]c2cc1OC [Compound 6, 3-((((1-([1,1′-Biphenyl]-3-ylmethyl)-1H-tetrazol-5-yl)methyl)(4-fluorobenzyl)amino)methyl)-6,7-dimethoxyquinolin-2(1H)-one] | – | 75 ± 9% | No | – | 52 ± 1 µM |
| COc1ccc2[nH]c(=O)c(CN(Cc3ccc(F)cc3)Cc3nnnn3Cc3ccccc3)cc2c1 [Compound 7, 3-((((1-Benzyl-1H-tetrazol-5-yl)methyl)(4-fluorobenzyl)amino)methyl)-6-methoxyquinolin-2(1H)-one] | – | 60 ± 7% | No | – | 47 ± 1 µM |
| O=c1[nH]c2ccccc2cc1CN(Cc1ccc(F)cc1)Cc1nnnn1Cc1ccccc1 [Compound 8, 3-((((1-Benzyl-1H-tetrazol-5-yl)methyl)(4-fluorobenzyl)amino)methyl)quinolin-2(1H)-one] | – | 45 ± 15% | No | – | 104 ± 4 µM |
| COc1cc2cc(CN(Cc3ccccc3)Cc3nnnn3Cc3ccccc3)c(=O)[nH]c2cc1OC [Compound 9, 3-((((1-Benzyl-1H-tetrazol-5-yl)methyl)benzylamino)methyl)-6,7-dimethoxyquinolin-2(1H)-one] | – | – | Yes | – | 74 ± 3 µM |
| COc1cc2cc(CN(Cc3ccc(Cl)cc3)Cc3nnnn3Cc3ccccc3)c(=O)[nH]c2cc1OC [Compound 10, 3-((((1-Benzyl-1H-tetrazol-5-yl)methyl)(4-chlorobenzyl)amino)methyl)-6,7-dimethoxyquinolin-2(1H)-one] | – | – | Yes | – | 63 ± 3 µM |
| COc1cc2cc(CN(Cc3ccc(Br)cc3)Cc3nnnn3Cc3ccccc3)c(=O)[nH]c2cc1OC [Compound 11, 3-((((1-Benzyl-1H-tetrazol-5-yl)methyl)(4-bromobenzyl)amino)methyl)-6,7-dimethoxyquinolin-2(1H)-one] | – | 37 ± 20% | No | – | 112 ± 4 µM |
| COc1cc2cc(CN(Cc3nnnn3Cc3ccccc3)CC34CC5CC(CC(C5)C3)C4)c(=O)[nH]c2cc1OC [Compound 12, 3-((((1-Benzyl-1H-tetrazol-5-yl)methyl)(1-adamantylmethyl)amino)methyl)-6,7-dimethoxyquinolin-2(1H)-one] | – | 93 ± 6% | No | – | 39 ± 1 µM |
| O=C(Nc1cc(C(=O)Nc2ccc(S(=O)(=O)[O-])c3cc(S(=O)(=O)[O-])cc(S(=O)(=O)[O-])c23)cc(C(=O)Nc2ccc(S(=O)(=O)[O-])c3cc(S(=O)(=O)[O-])cc(S(=O)(=O)[O-])c23)c1)Nc1cc(C(=O)Nc2ccc(S(=O)(=O)[O-])c3cc(S(=O)(=O)[O-])cc(S(=O)(=O)[O-])c23)cc(C(=O)Nc2ccc(S(=O)(=O)[O-])c3cc(S(=O)(=O)[O-])cc(S(=O)(=O)[O-])c23)c1.[Na+].[Na+].[Na+].[Na+].[Na+].[Na+].[Na+].[Na+].[Na+].[Na+].[Na+].[Na+] [NF864] | 16 ± 6% | – | – | No | – |
| CCOC(=O)Cc1csc(NC(=O)CSc2nc(C(C)C)nc3sc(C)c(C)c23)n1 [NF2013] | – | – | – | Yes | – |
